“Also recorded” adds a separate entry of the source.
How the values were obtained:
MCF7 [1] = test: MTT cell viability, MCF7; type: cell-based; conditions: Homo sapiens, MCF7; 48 h, MTT, 1.25–160 μM; read-out: IC50 MCF7
Experimental: (§1) Four different breast cells lines were used in this study: MCF-10A (non-tumorigenic), MCF7 (ER+ BC), MDA-MB453 (HER2+ BC) and MDA-MB231 (TNBC). All lineages were obtained from the American Type Culture Collection (ATCC; Manassas, VA, USA) and maintained at a temperature of 37 °C according to the supplier’s recommendations. Only MDA-MB231 cells were not kept in an atmosphere of 5% CO2. MCF-10A was grown in Dulbecco’s Modified Eagle’s Medium (DMEM F12, Gibco, ThermoFisher Scientific, Waltham, MA, USA) supplemented with 20 ng/mL epidermal growth factor (Gibco, ThermoFisher Scientific, Waltham, MA, USA), 0.5 μg/mL hydrocortisone (Sigma-Aldrich, Sigma-Aldrich, St. Louis, MO, USA) and 10 μg/mL insulin (Gibco, ThermoFisher Scientific, Waltham, MA, USA). MCF7 was cultivated in Roswell Park Memorial Institute Medium (RPMI-1640, Gibco, ThermoFisher Scientific, Waltham, MA, USA), MDA-MB453 in IMDM and MDA-MB231 in Leibovitz’s medium (L-15, Gibco, ThermoFisher Scientific, Waltham, MA, USA). All media were supplemented with 10% fetal bovine serum (FBS, Gibco, ThermoFisher Scientific, Waltham, MA, USA) and 50 µg/mL of gentamicin (Cultilab, Campinas, SP, Brazil). The cells were confirmed to be free of mycoplasma and passaged using a 0.25% trypsin-EDTA solution when confluency reached 80–90%.
(§2) Cell viability was determined by spectrophotometric quantification of MTT (3-[4,5-dimethyl-thiazol-2-yl]-2,5-diphenyltetrazolium bromide—Invitrogen. Waltham, MA, USA) reduction to formazan crystals. Cells were seeded at the density of 1 × 10^4 cells/well (MCF-10A, MDA-MB453), 1.5 × 10^4 cells/well (MDA-MB231) and 3 × 10^3 cells/well (MCF7) in 96-well culture dishes and incubated with different concentrations of the compounds (1.25, 2.5, 5, 10, 20, 40, 80 and 160 µM) for 48 h. The medium was than replaced by MTT solution (0.5 mg/mL) and plates were kept at 37 °C for 4 h. After the aspiration of the media, the formazan crystals were diluted with 100 μL of dimethyl-sulfoxide (DMSO)/well and the absorbance at 570 nm was measured using a spectrophotometer (Thermo Plate TP-Reader, Waltham, MA, USA). Cytotoxicity was calculated using the following formula: Cytotoxicity (%) = [absorbance of cells treated with the compounds/absorbance of cells treated with DMSO) × 100]. The IC50 was determined for each compound and was defined as the concentration required to inhibit 50% of cell growth, compared to the control sample (cells treated with DMSO 0.05%).
(§3) Data were presented as the mean ± standard deviation (SD) and analyzed using GraphPad Prism 9.0 software (GraphPad Software Inc., La Jolla, CA, USA). All data were assayed in triplicate. Statistical analysis was performed using one-way ANOVA, Tukey´s HSD post hoc test and Student’s t-test. The IC50 was calculated using non-linear regression and the selectivity index (SI) was calculated by the ratio between the IC50 values corresponding to the non-tumor cell lineage (MCF-10A) and the IC50 values corresponding to the BC cell lines. Statistical significance was accepted at p values < 0.05.

[2] = tested on: tumor cells MCF7, MDA-MB-453 and MDA-MB-231; test: MTT cell viability, tumor cells (stated collectively); type: cell-based; conditions: 48 h, MTT; tumor cells stated collectively
Experimental: as §1, §2, §3

MCF7 [3] = test: Wound-healing migration assay; type: cell-based
Experimental: Wound-healing analysis was applied to test cell migration ability. MCF7 cells were seeded in a 6-well plate at a density of 1 × 10^6 cells/well and, after confluence, a “wound” in the monolayer was introduced by a sterilized 200 μL pipet tip. Cells were washed with PBS and treated with compound 3 (1.125, 2.25 and 4.5 µM) for 24 or 48 h in a serum-free medium. Cells were photographed at 0 h, 24 or 48 h under a light microscope (Evos®, ThermoFisher Scientific, Waltham, MA, USA) at 10× objective using the same randomly chosen fields. The cell-free area was measured by ImageJ v. 1.54 g software and migration in the control well was considered to be 100%.

MCF7 [4] = test: Clonogenic (colony formation) assay; type: cell-based; conditions: MCF7, 9.00 µM (highest concentration), 48 h
Experimental: MCF7 cells were seeded at a density of 500 cells per well in 6-well culture. […] The medium was removed and, after 12 days, cells were washed 3 times with 1 × Phosphate-buffered saline (PBS), fixed with formaldehyde (4% v/v) and stained with crystal violet solution (0.5% v/v). Plates were scanned using L-Pix (Loccus Biotecnologia, Cotia, SP, Brazil) to obtain the images, incubated with 300 µL of acetic acid 33% v/v, and 100 µL of this solution was transferred to 96-well plates to evaluate the absorbance at 570 nm in a microplate reader (Thermo Plate TP-Reader, ThermoFisher). The number of colonies per well was calculated in relation to the untreated cells (considered as 100% of colony formation).

MCF-10A = test: MTT cell viability, non-tumor cell line MCF-10A; type: cell-based; conditions: Homo sapiens, MCF-10A, 48 h, 1.25–160 μM, read-out: IC50 MCF-10A
Experimental: as §1, §2, §3

[5] = ABTS radical scavenging assay; conditions: 40 µM (greatest activity among 10, 20, 40, 80 and 160 µM)
Experimental: The ABTS^+ radical cation scavenging efficacy for compound 3 was determined according to the method described earlier with some modifications. Briefly, an equal amount of 7 mM ABTS^+ (2,20-azino-bis(3-ethylbenzothiazoline-6-sulfonic acid)) stock solution was mixed and kept in the dark at room temperature for 12 h with a 140 mM potassium persulfate stock solution. The ABTS^+ was then diluted in ethanol until it reached a UV absorption value of 0.700 (±0.200) at 734 nm. Compound 3 (10, 20, 40, 80 and 160 µM) was mixed with ABTS^+ in 96-well plates, and absorbance was read at 415 nm using a microplate reader (Thermo Plate TP-Reader, ThermoFisher Scientific, Waltham, MA, USA). The scavenging capability of ABTS^+ radical was expressed as Trolox (0.1 to 2 mM) equivalents.

MDA-MB-453 = test: MTT cell viability, MDA-MB-453; type: cell-based
Experimental: as §1, §2, §3

IC50 [2]: < 50 µM
Compound: O=C(c1ccc(-n2cnnn2)cc1)N1CCN(S(=O)(=O)c2ccc(Cl)cc2)CC1 [Compound 3, (4-(1H-tetrazol-1-yl)phenyl)(4-((4-chlorophenyl)sulfonyl)piperazin-1-yl)methanone]
IC50 (MCF7 [1]): 4.48 µM
Migration of MCF7 cells (MCF7 [3]; 1.13, 2.25 and 4.50 µM, 48 h): significantly inhibited
Migration of MCF7 cells (MCF7 [3]; 2.25 and 4.50 µM, 24 h): significantly inhibited
Colony formation (MCF7 [4]): significantly reduced colony formation; also recorded: Colony formation was inhibited
IC50 (MCF-10A): > 160 µM
ABTS inhibition of free radicals [5]: 40%
IC50 (MDA-MB-453; Homo sapiens, MDA-MB-453, 48 h, MTT, 1.25–160 μM, read-out: IC50 MDA-MB-453): 80 µM
SI MDA-MB-453 (MDA-MB-453; IC50 MCF10A / IC50 MDA-MB-453): >2.00

From publication PMC11433764, “A Novel Compound from the Phenylsulfonylpiperazine Class: Evaluation of In Vitro Activity on Luminal Breast Cancer Cells” (Molecules, 2024)
